Measurements reported in US11708348B2, “Protease inhibitors for treatment of coronavirus infections” (The Scripps Research Institute, priority 2021, dated 2023).
Where two headings read alike, the source gives them in different places.

System: SARS-CoV-2 strain USA-WA1/2020
Assay: microbe, parasite or virus in culture
Format: cell-based
Details: Severe acute respiratory syndrome coronavirus 2, HeLa-ACE2, 24 h, read-out: EC50, uM (Hela)
[1] = HeLa-ACE2 cells, SARS-CoV-2 infection, 24 h

Row | SMILES | EC50 [1] | EC50
1 | COc1cccc2[nH]c(C(=O)N3C[C@@H]4CCC[C@@H]4[C@H]3C(=O)N[C@@H](C[C@@H]3CCNC3=O)C(=O)COC(F)(F)F)cc12 [Compound 608, (1S,3aR,6aS)-2-(4-methoxy-1H-indole-2-carbonyl)-N-((S)-3-oxo-1-((S)-2-oxopyrrolidin-3-yl)-4-(trifluoromethoxy)butan-2-yl)octahydrocyclopenta[c]pyrrole-1-carboxamide] | < 0.05 µM | 
2 | O=C1NCC[C@H]1C[C@H](NC(=O)[C@@H]1[C@H]2CCC[C@H]2CN1C(=O)c1noc2cc(Cl)ccc12)C(=O)COC(F)(F)F [Compound 609, (1S,3aR,6aS)-2-(6-chlorobenzo[d]isoxazole-3-carbonyl)-N-((S)-3-oxo-1-((S)-2-oxopyrrolidin-3-yl)-4-(trifluoromethoxy)butan-2-yl)octahydrocyclopenta[c]pyrrole-1-carboxamide] | < 0.05 µM | 
3 | O=C(Nc1ccccc1OC(F)(F)F)C(=O)N1CC2(CC2)C[C@H]1C(=O)N[C@@H](C[C@@H]1CCNC1=O)C(=O)COC(F)(F)F [Compound 610, (S)-N-((S)-3-oxo-1-((S)-2-oxopyrrolidin-3-yl)-4-(trifluoromethoxy)butan-2-yl)-5-(2-oxo-2-((2-(trifluoromethoxy)phenyl)amino)acetyl)-5-azaspiro[2.4]heptane-6-carboxamide] | < 0.05 µM | 
4 | O=C1NCC[C@H]1C[C@H](NC(=O)[C@@H]1[C@H]2CCC[C@H]2CN1C(=O)c1noc2cc(F)ccc12)C(=O)COC(F)(F)F [Compound 611, (1S,3aR,6aS)-2-(6-fluorobenzo[d]isoxazole-3-carbonyl)-N-((S)-3-oxo-1-((S)-2-oxopyrrolidin-3-yl)-4-(trifluoromethoxy)butan-2-yl)octahydrocyclopenta[c]pyrrole-1-carboxamide] | < 0.05 µM | 
5 | CC(C)(C)c1ccccc1NC(=O)C(=O)N1CC2(CC2)C[C@H]1C(=O)N[C@@H](C[C@@H]1CCNC1=O)C(=O)COC(F)(F)F [Compound 613, (S)-5-(2-((2-(tert-butyl)phenyl)amino)-2-oxoacetyl)-N-((S)-3-oxo-1-((S)-2-oxopyrrolidin-3-yl)-4-(trifluoromethoxy)butan-2-yl)-5-azaspiro[2.4]heptane-6-carboxamide] | < 0.05 µM | 
6 | O=C1NCC[C@H]1C[C@H](NC(=O)[C@@H]1[C@H]2CCC[C@H]2CN1C(=O)c1noc2ccc(F)cc12)C(=O)COC(F)(F)F [Compound 614, (1S,3aR,6aS)-2-(5-fluorobenzo[d]isoxazole-3-carbonyl)-N-((S)-3-oxo-1-((S)-2-oxopyrrolidin-3-yl)-4-(trifluoromethoxy)butan-2-yl)octahydrocyclopenta[c]pyrrole-1-carboxamide] | < 0.05 µM | 
7 | CC(C)(C)c1ccccc1NC(=O)C(=O)N1C[C@@H]2CCC[C@@H]2[C@H]1C(=O)N[C@@H](C[C@@H]1CCNC1=O)C(=O)COC(F)(F)F [Compound 615, (1S,3aR,6aS)-2-(2-((2-(tert-butyl)phenyl)amino)-2-oxoacetyl)-N-((S)-3-oxo-1-((S)-2-oxopyrrolidin-3-yl)-4-(trifluoromethoxy)butan-2-yl)octahydrocyclopenta[c]pyrrole-1-carboxamide] | < 0.05 µM | 
8 | O=C1NCC[C@H]1C[C@H](NC(=O)[C@@H]1CC2(CC2)CN1C(=O)C(F)(F)c1ccccc1)C(=O)COC(F)(F)F [Compound 616, (S)-5-(2,2-difluoro-2-phenylacetyl)-N-((S)-3-oxo-1-((S)-2-oxopyrrolidin-3-yl)-4-(trifluoromethoxy)butan-2-yl)-5-azaspiro[2.4]heptane-6-carboxamide] | < 0.05 µM | 
9 | CCCCC(=O)N1CC2(CC2)C[C@H]1C(=O)N[C@@H](C[C@@H]1CCNC1=O)C(=O)COC(F)(F)F [Compound 618, (S)-N-((S)-3-oxo-1-((S)-2-oxopyrrolidin-3-yl)-4-(trifluoromethoxy)butan-2-yl)-5-pentanoyl-5-azaspiro[2.4]heptane-6-carboxamide] | 0.05 to 0.2 µM | 
10 | CC(C)(C(=O)N1CC2(CC2)C[C@H]1C(=O)N[C@@H](C[C@@H]1CCNC1=O)C(=O)COC(F)(F)F)c1ccccc1 [Compound 619, (S)-5-(2-methyl-2-phenylpropanoyl)-N-((S)-3-oxo-1-((S)-2-oxopyrrolidin-3-yl)-4-(trifluoromethoxy)butan-2-yl)-5-azaspiro[2.4]heptane-6-carboxamide] | < 0.05 µM | 
11 | CC(C)(C)[C@H](NC(=O)OCc1ccccc1)C(=O)N1C[C@H]2[C@@H]([C@H]1C(=O)N[C@@H](C[C@@H]1CCNC1=O)C(=O)COC(F)(F)F)C2(C)C [Compound 620, benzyl ((S)-1-((1R,2S,5S)-6,6-dimethyl-2-(((S)-3-oxo-1-((S)-2-oxopyrrolidin-3-yl)-4-(trifluoromethoxy)butan-2-yl)carbamoyl)-3-azabicyclo[3.1.0]hexan-3-yl)-3,3-dimethyl-1-oxobutan-2-yl)carbamate] | < 0.05 µM | 
12 | COC(C(=O)N1C[C@@H]2CCC[C@@H]2[C@H]1C(=O)N[C@@H](C[C@@H]1CCNC1=O)C(=O)COC(F)(F)F)c1cncc(Cl)n1 (stereo partly drawn) [Compound 621, (1S,3aR,6aS)-2-(2-(6-chloropyrazin-2-yl)-2-methoxyacetyl)-N-((S)-3-oxo-1-((S)-2-oxopyrrolidin-3-yl)-4-(trifluoromethoxy)butan-2-yl)octahydrocyclopenta[c]pyrrole-1-carboxamide] | 0.05 to 0.2 µM | 
13 | O=C(Cc1ccccc1)O[C@@H](C(=O)N1C[C@@H]2CCC[C@@H]2[C@H]1C(=O)N[C@@H](C[C@@H]1CCNC1=O)C(=O)COC(F)(F)F)c1ccccc1F [Compound 622, (R)-1-(2-fluorophenyl)-2-oxo-2-((1S,3aR,6aS)-1-(((S)-3-oxo-1-((S)-2-oxopyrrolidin-3-yl)-4-(trifluoromethoxy)butan-2-yl)carbamoyl)hexahydrocyclopenta[c]-pyrrol-2(1H)-yl)ethyl 2-phenylacetate] |  | 0.05 to 0.2 µM
14 | CC(C)CC(F)(F)C(=O)N1CC2(CC2)C[C@H]1C(=O)N[C@@H](C[C@@H]1CCNC1=O)C(=O)COC(F)(F)F [Compound 623, (S)-5-(2,2-difluoro-4-methylpentanoyl)-N-((S)-3-oxo-1-((S)-2-oxopyrrolidin-3-yl)-4-(trifluoromethoxy)butan-2-yl)-5-azaspiro[2.4]heptane-6-carboxamide] | < 0.05 µM | 
15 | CC(C)(F)CCC(=O)N1CC2(CC2)C[C@H]1C(=O)N[C@@H](C[C@@H]1CCNC1=O)C(=O)COC(F)(F)F [Compound 624, (S)-5-(4-fluoro-4-methylpentanoyl)-N-((S)-3-oxo-1-((S)-2-oxopyrrolidin-3-yl)-4-(trifluoromethoxy)butan-2-yl)-5-azaspiro[2.4]heptane-6-carboxamide] | 0.05 to 0.2 µM | 
16 | CC(C)CC(C)(C)C(=O)N1CC2(CC2)C[C@H]1C(=O)N[C@@H](C[C@@H]1CCNC1=O)C(=O)COC(F)(F)F [Compound 625, (S)-N-((S)-3-oxo-1-((S)-2-oxopyrrolidin-3-yl)-4-(trifluoromethoxy)butan-2-yl)-5-(2,2,4-trimethylpentanoyl)-5-azaspiro[2.4]heptane-6-carboxamide] | < 0.05 µM | 
17 | CCC(=O)O[C@H](CC(C)C)C(=O)N1CC2(CC2)C[C@H]1C(=O)N[C@@H](C[C@@H]1CCNC1=O)C(=O)COC(F)(F)F [Compound 626, (R)-4-methyl-1-oxo-1-((S)-6-(((S)-3-oxo-l-((S)-2-oxopyrrolidin-3-yl)-4-(trifluoromethoxy)butan-2-yl)carbamoyl)-5-azaspiro[2.4]heptan-5-yl)pentan-2-yl propionate] | < 0.05 µM | 
